Our source for the viability, T/C and IC50 values is PubChem BioAssay AID1918942 (Molecular Pharmacology Branch, DTP, NCI, 2023).

The term viability, T/C denotes the result in the treated group divided by that in the control group, in per cent. The term pIC50 denotes the negative decadic logarithm of the IC50, by convention in mol/L.

pIC50: −log10 of the molar value. “And” between values parts separate entries of the source, which are not always exact repeats. Identical values can stand only once.

This assay concerns 743489-274-T-PDC complex spheroid viability. In words: Anticancer human tumor 743489-274-T-PDC patient-derived renal cell carcinoma cell line growth inhibition. Conditions: for viability, T/C: stronger effect = lower value; for pIC50: curve of compound. The text has this: Multicellular complex tumor spheroid response to LSD1 Inhibitor Iadademstat in combination with a variety of drugs and investigational agents in selected tumor cell lines
The current study was undertaken to assess response to LSD1 inhibitors in combination with standard-of-care drugs and investigational agents in solid tumor complex spheroid models as well as in the K-562 leukemia. Complex spheroids include a stromal component modeled by human endothelial cells (HUVEC) and fibroblasts modeled by human mesenchymal stem cells (MSCs). The concentration ranges selected for each drug and investigational agent were based upon clinically achievable concentrations if the clinical Cmax of the agent was known.
Compounds. The drugs and investigational agents used in this study are listed on Table 1. All of the agents used, including staurosporine (NSC755774) and gemcitabine (NSC613327), were obtained from the Developmental Therapeutics Program, NCI. FDA-approved anticancer drugs are available from the NCI at http://dtp.nci.nih.gov/branches/dscb/oncology_drugset_explanation.html. Drugs and investigational agents were >95% pure by proton nuclear magnetic resonance (NMR) and liquid chromatography/mass spectrometry (LC/MS). Stock solutions were prepared at 400x in DMSO, stored at -70 degrees C, and diluted in fresh medium prior to their use. The final concentration of DMSO in cell culture wells never exceeded 0.25% (v/v). The FDA-approved anticancer drug set is available from the Developmental Therapeutics Program at https://dtp.cancer.gov/organization/dscb/obtaining/available_plates.htm. All drugs and investigational agents were tested over a range starting from a high concentration at or near the clinical Cmax and decreasing in half-log increments. If the clinical Cmax for an agent had not been determined, the highest concentration tested was 10 microM.
Cell Lines. The patient-derived cancer cell (PDC) lines: 292921-168-R-J2-PDC, K24384-001-R-PDC, and 521955-158-R2-J5-PDC pancreatic carcinomas, 556581-035-R-J1 ovarian carcinoma, 324938-238-R-J1-PDC, 855422-203-R-J1-PDC and 883617-216-R-J1-PDC urothelial bladder carcinomas, 743489-274-T-PDC renal cell carcinoma, 138582-R-J1 Merkel cell tumor, K60290-347-R-J1 and K57222-313-R-J1-PDC glioblastomas, 653999-131-R-J2-PDC, LG0703-F948-PDC, and 349418-098-R-PDC non-small cell lung carcinomas, 885512-296-R-J2-PDC, 171881-019-R-J1-PDC breast carcinomas and 186277-243-T-J2-PDC and 233499-124-R-J2-PDC colon carcinomas were obtained from the NCI Patient-Derived Models Repository (PDMR, https://pdmr.cancer.gov). The established cell lines NCI/ADR-RES (RRID:CVCL_14520 and OVCAR-5 (RRID:CVCL_1628) ovarian carcinomas, 786-O (RRID:CVCL_1051) and A498 (RRID:CVCL_A498) renal cell carcinoma, NCI-H211 (ATCC, cat. CRL-5824; RRID:CVCL_1529), NCI-H196 (ATCC, cat. CRL-5823, RRID:CVCL_1509), SW 1271 (ATCC, cat. CRL-2177, RRID:CVCL_1716) and NCI-H1876 (ATCC, cat. CRL-5902, RRID:CVCL_1503) small cell lung carcinomas, MDA-MB-231 (RRID:CVCL_0062) and MDA-MB-468 (RRID:CVCL_0419)breast carcinomas (10-12). Pooled donor human umbilical vein endothelial cells (HUVEC, Lonza, cat. CC-2519) and human mesenchymal stem cells (hMSC, Lonza, cat. PT-2501) were purchased from Lonza (Walkersville, MD).
Cell Culture. All cells were maintained in an incubator at 37 degrees C and 5% CO2 with 95% humidity. The PDC lines were cultured according to standard operating procedures established by the NCI PDMR (https://pdmr.cancer.gov). Briefly all PDCs were thawed and cultured in Matrigel-coated flasks prepared with a working solution of 1X Ham's F-12 nutrient mix, without supplementation (Invitrogen, Waltham, MA, cat. 11765054), 100 U/mL penicillin-streptomycin (Invitrogen, cat. 15140122), and 2.5% Matrigel (Corning Inc., Corning, NY, cat. 354248) for the first three passages. […]
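Also: spheroids exposed to compounds for 7 days before readout.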

For `Cn1ncnc1C1c2n[nH]c(=O)c3cc(F)cc(c23)NC1c1ccc(F)cc1` (stereo not drawn), the pIC50 was below 7.00. The viability, T/C (compound 0.000316 µM) was 88.5% and 99.7%. Moreover, the viability, T/C (compound 0.001 µM) is 100% and 110%. Also, under “compound 0.00316 µM”, the viability, T/C was 90.2% and 98.6%. Besides, the viability, T/C (compound 0.01 µM) was 95.9% and 90.8%. Moreover, the viability, T/C (compound 0.0316 µM) was 93.7% and 92.8%. For the same molecule, under “compound 0.1 µM”, the viability, T/C is 91.4% and 84.3%.

On to `NS(=O)(=O)OCC1CC(n2ccc3c(NC4CCc5ccccc54)ncnc32)CC1O` (stereo not drawn), for which the pIC50 is below 5.52. In addition, the viability, T/C (compound 0.00949 µM) is 90.9% and 95.7%. The viability, T/C (compound 0.03 µM) was 95.9% and 111%. Moreover, the viability, T/C (compound 0.0949 µM) is 111% and 103%. Further, the viability, T/C (compound 0.3 µM) was 118% and 135%. Moreover, where the note is “compound 0.949 µM”, the viability, T/C is 116% and 125%. The viability, T/C (compound 3 µM) is 121% and 101%.

In the case of `Nc1ccccc1NC(=O)c1ccc(CNC(=O)OCc2cccnc2)cc1`, the pIC50 was 5.94 and 6.12. Besides, the viability, T/C (compound 0.00949 µM) was 85.4% and 102%. In addition, the viability, T/C (compound 0.03 µM) was 89.2% and 78%. Moreover, the viability, T/C (compound 0.0949 µM) is 95.2% and 79.4%. For the same molecule, under “compound 0.3 µM”, the viability, T/C is 78.8% and 67.1%. In addition, the viability, T/C (compound 0.949 µM) is 54.2% and 47.6%. In addition, the viability, T/C (compound 3 µM) is 32.6% and 26.4%.

For the molecule `Nc1ccn(C2OC(CO)C(O)C2(F)F)c(=O)n1` (stereo not drawn), the pIC50 was below 6.52. In addition, under “compound 0.000949 µM”, the viability, T/C is 82.7% and 61.8%. Moreover, the viability, T/C (compound 0.003 µM) is 85.6% and 60.9%. For the setting “compound 0.00949 µM”, the viability, T/C was 73% and 96.8%. Further, the viability, T/C (compound 0.03 µM) is 73.7% and 58%. For the setting “compound 0.0949 µM”, the viability, T/C is 71.6% and 64.1%. The viability, T/C (compound 0.3 µM) was 65.2% and 63.2%.

As to `Nc1ncn(C2CC(O)C(CO)O2)c(=O)n1` (stereo not drawn), the pIC50 is below 6.00. Also, the viability, T/C (compound 0.00316 µM) was 105% and 90.1%. Further, the viability, T/C (compound 0.01 µM) is 98% and 100%. Besides, the viability, T/C (compound 0.0316 µM) was 81% and 101%. Further, the viability, T/C (compound 0.1 µM) is 96.1% and 84.5%. In addition, for the setting “compound 0.316 µM”, the viability, T/C was 96% and 94.3%. Also, the viability, T/C (compound 1 µM) was 84.3% and 97.7%.

With `Nc1ncn(C2CC(O)C(CO)S2)c(=O)n1` (stereo not drawn), the pIC50 was below 6.52. Also, under “compound 0.000949 µM”, the viability, T/C is 106% and 96.8%. Besides, under “compound 0.003 µM”, the viability, T/C is 108% and 96.2%. For the same molecule, under “compound 0.00949 µM”, the viability, T/C is 90.8% and 92%. Further, under “compound 0.03 µM”, the viability, T/C is 80.2% and 82.5%. In addition, the viability, T/C (compound 0.0949 µM) is 89.9% and 81.5%. Besides, the viability, T/C (compound 0.3 µM) was 88.7% and 75.2%.

On to `O=C(C=Cc1cccc(S(=O)(=O)Nc2ccccc2)c1)NO`, for which the pIC50 is 5.79 and 6.00. In addition, the viability, T/C (compound 0.00949 µM) was 89.9% and 92.2%. Moreover, the viability, T/C (compound 0.03 µM) was 83.1% and 89.3%. In addition, the viability, T/C (compound 0.0949 µM) was 76.4% and 75%. Besides, for the setting “compound 0.3 µM”, the viability, T/C was 66.4% and 65%. Moreover, for the setting “compound 0.949 µM”, the viability, T/C is 55.4% and 51.6%. In addition, the viability, T/C (compound 3 µM) is 43.6% and 35.7%.

In the case of `O=C(C=Cn1cnc(-c2cc(C(F)(F)F)cc(C(F)(F)F)c2)n1)NNc1cnccn1`, the pIC50 is below 6.00. The viability, T/C (compound 0.00316 µM) is 106% and 109%. Moreover, the viability, T/C (compound 0.01 µM) is 108% and 91%. The viability, T/C (compound 0.0316 µM) was 121% and 117%. Besides, the viability, T/C (compound 0.1 µM) was 115% and 97.5%. For the same molecule, the viability, T/C (compound 0.316 µM) is 94.2% and 86.3%. For the same molecule, the viability, T/C (compound 1 µM) was 81.2% and 73.2%.

Regarding `O=C(c1cc(Cc2n[nH]c(=O)c3ccccc23)ccc1F)N1CCN(C(=O)C2CC2)CC1`, the pIC50 is below 5.00. Besides, the viability, T/C (compound 0.0316 µM) was 95.3% and 101%. The viability, T/C (compound 0.1 µM) is 88.2% and 113%. The viability, T/C (compound 0.316 µM) was 102% and 108%. Moreover, the viability, T/C (compound 1 µM) was determined as 108%. Further, the viability, T/C (compound 3.16 µM) was 94.5% and 93.2%. Further, the viability, T/C (compound 10 µM) is 83% and 82.5%.
